For test [1], the system named is cultured human mast cells (CHMC). Description: CHMC low cell density IgE activation: tryptase assay. It is filed as cell-based. The settings on record: anti-IgE. The gist of the method:
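Degranulation is read as supernatant tryptase activity, using tryptase substrate incubated 30 min at room temperature. Before this, CHMC at low density (1000-1500 cells/well) rest 1 hr at 37° C and are triggered with anti-IgE for 30 min at 37° C.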

For test [2] the test system is unchanged. Description: CHMC low cell density ionomycin activation: tryptase assay. It is filed as cell-based.

As for `CNC(=O)COc1ccc(Nc2ncc(F)c(Nc3ccc4c(c3)OCCO4)n2)cc1` [R909240, N4-(3,4-Ethylendioxyphenyl)-5-fluoro-[4-(N-methylamino)carbonylmethyleneoxyphenyl]-2,4-pyrimidinediamine], the IC50 in test [1] was 0.262 µM; in test [2] it was more than 10 µM.

As to `CCOC(=O)COc1cccc(Nc2ncc(F)c(Nc3ccc4c(c3)NCCO4)n2)c1` [R909242, N4-(1,4-Benzoxazin-6-yl)-N2-[3-ethoxyocarbonylmethyleneoxyphenyl]-5-fluoro-2,4-pyrimidinediamine], the IC50 in test [1] was 0.567 µM; in test [2], more than 10 µM.

Regarding `CNC(=O)COc1cccc(Nc2nc(Nc3ccc4c(c3)NCCO4)ncc2F)c1` [R909247, N2-(1,4-Benzoxazin-6-yl)-5-fluoro-N4-[3-(N-methylamino)carbonylmethyleneoxyphenyl]-2,4-pyrimidinediamine], the IC50 was 2.39 µM in test [1] and more than 10 µM in test [2].

Turning to `CNC(=O)COc1cccc(Nc2nc(Nc3cccc4c3CCO4)ncc2F)c1` [R909249, N2-(4-Dihydrobenzofuranyl)-5-fluoro-N4-[3-(N-methylamino)carbonylmethyleneoxyphenyl]-2,4-pyrimidinediamine], the IC50 in test [1] and in test [2] was more than 10 µM throughout.

For `CC(O)CNC(=O)COc1cccc(Nc2ncc(F)c(Nc3ccc4c(c3)NCCO4)n2)c1` (stereo not drawn) [R909251, N4-(1,4-Benzoxazin-6-yl)-5-fluoro-N2-[3-(N-2-hydroxypropylamino)carbonylmethyleneoxyphenyl]-2,4-pyrimidinediamine], the results for the concentration for half-maximal inhibition (IC50) in test [1] and in test [2] were 0.138 µM and more than 10 µM, respectively.

Turning to `O=C(COc1cccc(Nc2ncc(F)c(Nc3ccc4c(c3)NCCO4)n2)c1)NCCCO` [R909252, N4-(1,4-Benzoxazin-6-yl)-5-fluoro-N2-[3-(N-3-hydroxypropylamino)carbonylmethyleneoxyphenyl]-2,4-pyrimidinediamine], the IC50 in test [1] is 0.248 µM; in test [2] it was more than 10 µM.

As to `CNC(=O)COc1cccc(Nc2nc(Nc3ccc(OCCN(C)C)cc3)ncc2F)c1` [R909253, N2-[4-(2-N,N-Dimethylaminoethyl)oxyphenyl]-5-fluoro-N4-[3-(N-methylamino)carbonylmethyleneoxyphenyl]-2,4-pyrimidinediamine], the IC50 in test [1] is 7.96 µM; in test [2], more than 10 µM.

`CC(C)NC(=O)COc1cccc(Nc2ncc(F)c(Nc3ccc4c(c3)NCCO4)n2)c1` [R909254, N4-(1,4-Benzoxazin-6-yl)-N2-[3-(N-isopropylamino)carbonylmethyleneoxyphenyl]-5-fluoro-2,4-pyrimidinediamine]: the IC50 is 0.136 µM in test [1] and more than 10 µM in test [2].

Consider `CNC(=O)COc1cccc(Nc2ncc(F)c(Nc3ccc4c(c3)N(C)C(=O)CO4)n2)c1` [R909260, 5-Fluoro-N2-[3-(N-methylaminocarbonylmethyleneoxy)phenyl]-N4-[6-(N-methyl-1,4-benzoxazin-3-onyl)]pyrimidinediamine], for which the IC50 in test [1] is 1.04 µM; in test [2], more than 10 µM.

On to `CNC(=O)COc1cccc(Nc2ncc(F)c(Nc3ccc4c(c3)OCC(=O)N4C)n2)c1` [R909261], for which the IC50 in test [1] is 0.93 µM; in test [2] it was more than 10 µM.

In the case of `O=C1COc2ccc(Nc3ncc(F)c(Nc4cccc(O)c4)n3)cc2N1` [R909268, N2-(1,4-Benzoxazin-3-on-6-yl)-5-fluoro-N4-(3-hydroxyphenyl)-2,4-pyrimidinediamine], the IC50 was 0.071 µM in test [1] and more than 10 µM in test [2].

On to `CCOC(=O)COc1cccc(Nc2ncc(F)c(Nc3ccc4c(c3)NC(C)(C)CO4)n2)c1` [R909308], for which the 50% inhibitory concentration (IC50) in test [1] was 0.671 µM; in test [2], more than 10 µM.

`CNC(=O)COc1cccc(Nc2ncc(F)c(Nc3ccc4c(c3)NC(C)(C)CO4)n2)c1` [R909309, N4-(3,3-Dimethyl-1,4-benzoxazin-6-yl)-5-fluoro-N2-[3-(N-methylaminocarbonylmethyleneoxy)phenyl]-2,4-pyrimidinediamine]: the IC50 is 0.083 µM in test [1] and more than 10 µM in test [2].

Turning to `FC(F)(F)c1cnc(Nc2ccc3c(c2)OCCO3)nc1Nc1ccc2c(c1)OCCO2` [R920669], the IC50 was 0.42 µM in test [1] and more than 10 µM in test [2].

With `CCOc1ccc(Nc2nc(Nc3ccc4c(c3)OCCO4)ncc2F)cc1` [R920670, N4-(4-ethyloxyphenyl)-N2-(3,4-ethylenedioxyphenyl)-5-fluoro-2,4-pyrimidinediamine], the figures for the IC50 in test [1] and in test [2] were 2.18 µM and more than 10 µM, respectively.

For `Oc1cccc(Nc2nc(Nc3ccc(OCc4nnn[nH]4)cc3)ncc2F)c1` [R920818, 5-Fluoro-N4-(3-hydroxyphenyl)-N2-[4-(1,2,3,4-tetrazol-5-yl)methyleneoxyphenyl]-2,4-pyrimidinediamine], the IC50 in test [1] and in test [2] was more than 10 µM each time.

Take `Oc1cccc(Nc2ccnc(Nc3ccc(OCc4nn[nH]n4)cc3)n2)c1` [R920819, N4-(3-Hydroxyphenyl)-N2-[4-(1H,1,2,3,4-tetrazol-5-yl)methyleneoxyphenyl]-2,4-pyrimidinediamine]: the values for the IC50 in test [1] and in test [2] were 10 µM and more than 10 µM, respectively.

For `Cc1cnc(Nc2ccc(OCc3nnn[nH]3)cc2)nc1Nc1cccc(O)c1` [R920820, N4-(3-Hydroxyphenyl)-5-methyl-N2-[4-(1H,1,2,3,4-tetrazol-5-yl)methyleneoxyphenyl]-2,4-pyrimidinediamine], the concentration for half-maximal inhibition (IC50) in test [1] and in test [2] was more than 10 µM in each case.

For the molecule `Oc1cccc(Nc2nc(Nc3ccc(OCc4nnn[nH]4)cc3)ncc2C(F)(F)F)c1` [R920846], the IC50 in test [1] (Homo sapiens, Mast cell) was more than 10 µM; in test [2] (Homo sapiens, Mast cell) it was more than 10 µM.

Consider `Cn1nnnc1COc1ccc(Nc2ncc(F)c(Nc3cccc(O)c3)n2)cc1` [R920860, 5-Fluoro-N4-(3-hydroxyphenyl)-N2-[4-(1-methyl-1,2,3,4-tetrazol-5-yl)methyleneoxyphenyl]-2,4-pyrimidineamine], for which the results for the half-inhibitory concentration (IC50) in test [1] and in test [2] were 1.01 µM and more than 10 µM, respectively.

Turning to `Cn1nnnc1COc1ccc(Nc2ncc(F)c(Nc3cccc(O)c3)n2)cc1` [R920861, 5-Fluoro-N4-(3-hydroxyphenyl)-N2-[4-(1-methyl-1,2,3,4-tetrazol-5-yl)methyleneoxyphenyl]-2,4-pyrimidineamine], the half-maximal inhibitory concentration (IC50) in test [1] was 0.598 µM; in test [2], more than 10 µM.

On to `Cc1cnc(Nc2ccc(OCc3nnn(C)n3)cc2)nc1Nc1cccc(O)c1` [R920893, N4-(3-Hydroxyphenyl)-5-methyl-N2-[4-(2-methyl-1,2,3,4-tetrazol-5-yl)methyleneoxyphenyl]-2,4-pyrimidineamine], for which the IC50 in test [1] was 1.24 µM; in test [2], more than 10 µM.

In the case of `Cc1cnc(Nc2ccc(OCc3nnnn3C)cc2)nc1Nc1cccc(O)c1` [R920894, N4-(3-Hydroxyphenyl)-5-methyl-N2-[4-(1-methyl-1,2,3,4-tetrazol-5-yl)methyleneoxyphenyl]-2,4-pyrimidineamine], the figures for the IC50 in test [1] and in test [2] were 0.888 µM and 5.57 µM, respectively.

For the molecule `Cn1nnc(COc2ccc(Nc3nccc(Nc4cccc(O)c4)n3)cc2)n1` [R920910, N4-(3-Hydroxyphenyl)-N2-[4-(2-methyl-1,2,3,4-tetrazol-5-yl)methyleneoxyphenyl]-2,4-pyrimidineamine], the IC50 came out at 0.751 µM in test [1] and 7.92 µM in test [2].

As for `Cn1nnnc1COc1ccc(Nc2nccc(Nc3cccc(O)c3)n2)cc1` [R920917, N4-(3-hydroxyphenyl)-N2-[4-(1-methyl-1,2,3,4-tetrazol-5-yl)methyleneoxyphenyl]-2,4-pyrimidineamine], the IC50 in test [1] stood at 1.58 µM; in test [2], 9.73 µM.

As for `CN(C)C(=O)COc1cccc(Nc2ncc(F)c(Nc3ccc4c(c3)OCCO4)n2)c1` [R925755, N4-(3,4-Ethylenedioxyphenyl)-N2-[3-(N,N-dimethylamino)carbonylmethyleneoxyphenyl]-5-fluoro-2,4-pyrimidinediamine], the IC50 is 0.898 µM in test [1] and more than 10 µM in test [2].

On to `C[C@H](Nc1nc(Nc2ccc3c(c2)OCCO3)ncc1F)[C@H](O)c1ccccc1` [R925766, N2-(3,4-Ethylendioxyphenyl)-5-fluoro-N4-[(2R)-hydroxy-(1S)-methyl-2-phenylethyl)-2,4-pyrimidinediamine], for which the values for the IC50 in test [1] and in test [2] were 8.9 µM and more than 10 µM, respectively.

Take `CCOC(=O)COc1ccc(Nc2ncc(-c3nnn[nH]3)c(Nc3ccc(OCC(=O)OCC)cc3)n2)cc1` [R925810, N2,N4-Bis(4-ethoxycarbonylmethyleneoxyphenyl)-5-(1,2,3,4-tetrazol-5-yl)-2,4-pyrimidinediamine]: the 50% inhibitory concentration (IC50) in test [1] and in test [2] was more than 10 µM throughout.

`CCOC(=O)c1cnc(Nc2ccc(OCC(=O)NCC3CC3)cc2)nc1Nc1cccc(O)c1` [R925838, N2-[4-(N-Cyclopropylmethylamino)carbonylmethyleneoxyphenyl]-5-ethoxycarbonyl-N4-(3-hydroxyphenyl)-2,4-pyrimidinediamine]: the IC50 in test [1] and in test [2] was more than 10 µM throughout.

Turning to `CCOC(=O)c1cnc(Nc2ccc(OCC(=O)NC)cc2)nc1Nc1cccc(O)c1` [R925839, 5-Ethoxycarbonyl-N4-(3-hydroxyphenyl)-N2-[4-(N-methylamino)carbonylmethyleneoxyphenyl]-2,4-pyrimidinediamine], the half-inhibitory concentration (IC50) in test [1] and in test [2] was more than 10 µM each time.

Turning to `CCOC(=O)c1cnc(Nc2ccc(OCC(=O)NCC(O)CO)cc2)nc1Nc1cccc(O)c1` (stereo not drawn) [R925840, N2-[4-(N-2,3-Dihydroxypropylamino)carbonylmethyleneoxyphenyl]-5-ethoxycarbonyl-N4-(3-hydroxyphenyl)-2,4-pyrimidinediamine], the IC50 in test [1] and in test [2] was more than 10 µM each time.

`COc1cccc(CNC(=O)COc2ccc(Nc3ncc(Br)c(Nc4ccc(OCC(=O)NCc5cccc(OC)c5)cc4)n3)cc2)c1` [R925841, N2,N4-Bis[4-[N-(3-methoxybenzylamino)carbonylmethyleneoxy]phenyl]-5-bromo-2,4-pyrimidinediamine]: the IC50 in test [1] and in test [2] was more than 10 µM in each case.

On to `O=C(COc1ccc(Nc2nc(Nc3cccc(O)c3)ncc2Br)cc1)NCC1CC1` [R925842], for which the concentration for half-maximal inhibition (IC50) in test [1] is 7.3 µM; in test [2], more than 10 µM.

The term IC50 denotes the point on the concentration scale where inhibition reaches its midpoint. A low value points to inhibition by little substance.
